Values after ≈ are worked out from the molar mass of the structure shown.
Columns and labels:
[1] = physchem
Experimental: The solubility data for each system tested in Table DD, was determined by the following method. First, a measured amount of dry crude mixture (39.3% clari, 37.5% 6,11, and 23.2% other impurities) was added to a measured volume of the mobile phase solvent being used for the particular test case and the mixture was stirred. Heat was added while the mixture was being stirred because dissolution of Clarithromycin and 6,11 is very slow at room temperature. The solution temperature was allowed to approach the boiling temperature of the solvent. The solution was held constant at that temperature until no more solid material was present in the mixture (complete dissolution). […]
In addition to the assembly of the physical system 500, the maximum feed concentration allowed by solubility must be known to optimize the operating parameters with the non-linear, non-equilibrium equations. The solubility was determined in the manner described earlier. Next, the optimal feed concentration was determined and was created by diluting the maximum feed concentration solution. […]
The feed solutions for Experiment #1 were prepared by mixing 5.6 g dry crude (39.3% clari, 37.5% 6,11, 23.2% other) Clarithromycin and 6,11 with 1000 ml of 80% methanol. […] Finally, this solution was filtered to remove any remaining solids and the volume measured to insure there was not significant evaporation. […]

[2] = Solubility in Ethanol/water solutions (excess solid stirred four hours, filtered, HPLC)

solubility ([1]; 24 °C, organic solvent or mixture, thermodynamic from solid, solubility limit) | solubility ([2]; Ethanol percentages below about 60%) | Ethanol content of the Ethanol/water solution at maximum solubility ([2]; approximately room temperature (24 C.), FIG. 8) | solubility ([2]; various Ethanol/water solutions, approximately room temperature (24 C.), FIG. 8) | solubility limit [1] | SMILES
2460 µg/mL (≈ 3.29 mM) | very small | about 80 % Ethanol | higher degree of solubility than 6,11 |  | CC[C@H]1OC(=O)[C@H](C)[C@@H](O[C@H]2C[C@@](C)(OC)[C@@H](O)[C@H](C)O2)[C@H](C)[C@@H](O[C@@H]2O[C@H](C)C[C@H](N(C)C)[C@H]2O)[C@](C)(OC)C[C@@H](C)C(=O)[C@H](C)[C@@H](O)[C@]1(C)O [Clarithromycin, 6-O-methyl erythromycin A]
 |  |  |  | 3030 µg/mL (≈ 3.98 mM) | CC[C@H]1OC(=O)[C@H](C)[C@@H](O[C@H]2C[C@@](C)(OC)[C@@H](O)[C@H](C)O2)[C@H](C)[C@@H](O[C@@H]2O[C@H](C)C[C@H](N(C)C)[C@H]2O)[C@](C)(OC)C[C@@H](C)C(=O)[C@H](C)[C@@H](OC)[C@]1(C)O [6,11, 6,11-O-methyl erythromycin A]

Reference: patent US6843854B2, “Method and apparatus for separating a component from a mixture” (Purdue Research Foundation, priority 2002, dated 2005)
